The text below walks through data of patent US9617249B2, “Benzoheterocyclic anti-bacterial agents” (UNIVERSITY OF NOTRE DAME DU LAC, priority 2008, dated 2017).

Each structure is given as a SMILES string. ≈ marks a conversion by molar mass, not a printed value.

The MIC is the least concentration at which growth counts as inhibited. Higher therefore signals a less susceptible organism.

Type in all cases: cell-based
The test system of assay [1] is Gram-negative clinical isolate strains. In words: Potency and selectivity against panel of Gram-negative clinical isolate strains. The settings on record: Ciprofloxacin standard (FIG. 10). From the text: (§1) FIG. 9 illustrates the potency and selectivity of ND-7901 against a panel of Gram-positive clinical isolate strains compared to a Ciprofloxacin standard in micrograms per milliliter. […] FIG. 10 illustrates the potency and selectivity of ND-7901 against a panel of Gram-negative clinical isolate strains compared to a Ciprofloxacin standard in micrograms per milliliter.

Assay [2] deals with S. aureus strains. In words: Mutational analysis by serial transfer experiments. The following applies: 0.5-2 times the MIC, after 8 passages (FIG. 14). As to the method:
FIG. 14 illustrates the mutational analysis of ND-7901 by serial transfer experiments. As such, the S. aureus strains were grown with ND-7901 (0.5-2 times the MIC) added and passed serially until resistance was found.

Assay [3] has as its system Gram-positive clinical isolate strains. In words: Potency and selectivity against panel of Gram-positive clinical isolate strains. The settings on record: Ciprofloxacin standard (FIG. 9).
Source text: as §1

A further assay has as its system Gram-positive strains. Description: MIC and MBC determinations against Gram-positive strains. The following applies: most Gram-positive isolates (FIG. 11). On the procedure: FIG. 11 illustrates the minimum inhibitory concentration (MIC) and the minimum bactericidal concentration (MBC) determinations of ND-7901 to various Gram-positive strains. A series of broths were mixed with solutions of diluted drug an inoculum was applied. After incubation, the MIC was determined as the first concentration in which the growth of the organism has been inhibited. In contrast, the MBC was measured by inoculating the series of broths used for the MIC determination onto drug-free medium. The MBC is the first dilution at which growth is not observed. ND-7901 is bactericidal against most Gram-positive isolates.

Assay [4] deals with S. aureus strains. In words: Mutational analysis by growth without selection and recovery on drug plates. The following applies: overnight growth with no selection, drug plates at 2-4 times the MIC (FIG. 13). From the text: FIG. 13 illustrates a mutational analysis of […] by growth of S. aureus strains overnight with no selection and recovery of resistant colonies on drug plates at 2-4 times the MIC value.

Assay [5] relates to methicillin-sensitive S. aureus (MSSA), ATCC 29213. Description: Time-kill assay. The settings on record: MSSA ATCC 29213, drug at various concentrations, Vancomycin as control (FIG. 12).
Assay [6] concerns Vancomycin-Resistant Enterococcus (VRE). Description: MIC against VRE. An excerpt: (§2) In embodiments, various molecules as described herein have surprising activity against MRSA. […] While this particular molecule has been tested previously, the present application is the first disclosure of this compound having activity against multi-drug resistant “super bug” strains. In addition, in accordance with an embodiment described herein, this compound and analogs thereof may be synthesized in high yields in just a single step. Further embodiments herein provide analogs of the afore-mentioned compounds and methods of making and using such compounds.
(§3) In accordance with an embodiment, in order to first broadly screen these compounds, an agar diffusion assay was employed to determine whether these compounds have any activity against a diverse array of organisms which include MRSA and VRE. […] FIG. 4 illustrates selectivity and potency of various benzimidazoles, benzthiazoles, and benzoxazoles against a panel of microorganisms including gram-positive bacteria, gram-negative bacteria, fungi, yeast, and mycobacteria. The minimum inhibition concentration at 90% is shown in micromolar concentration. […] Therefore many of the compounds had their MICs determined which reflected many of the findings of the diffusion assay. FIG. 5 illustrates the chemical structure, molecular weight, and chemical formula of most of the compounds of FIG. 4.

Assay [7] relates to Methicillin-resistant Staphylococcus aureus (MRSA). In words: MIC against MRSA.
Source text: as §2, §3

Regarding `O=[N+]([O-])c1ccc(-c2nc3cccc(O)c3[nH]2)o1` [ND-7901], the “activity against Gram-negative isolates” value in assay [1] is recorded as “limited activity”. In the assay with S. aureus strains [2], the “level of resistance after serial passage” value was “very low level of resistance”. The “activity against Gram-positive isolates” value in assay [3] is “good activity”. In addition, in the assay with Gram-positive strains, the “bactericidal character (MBC versus MIC)” value is “bactericidal”. Besides, the “spontaneous resistant mutants recovered” value in the assay on S. aureus strains [4] is “no spontaneous mutants were recovered”. The “kinetics of bacteria death (time-kill)” value in assay [5] is listed as “rapid kinetics of bacteria death”.

With `O=[N+]([O-])c1ccc(-c2nc3ccccc3[nH]2)o1` [nitrofuran benzimidazole], the MIC in assay [6] amounted to 16 µM (≈ 3.67 µg/mL); in assay [7], 8 µM (≈ 1.83 µg/mL).
